Three molecules from patent publication US8563580B2, “Flavivirus inhibitors and methods for their use” (Georgetown University, priority 2008, dated 2013) can be followed below.

Data set [1] is described as follows: Cytotoxicity assay (MTT), naïve Vero cells. In kind it is cell-based. To be noted: African green monkey, 18 hours incubation. The procedure:
(§1) Baby Hamster Kidney (BHK) and African green monkey kidney epithelial cells (Vero) were cultured in Dulbecco's Modified Eagle Medium (DMEM) (Cellgro®; Mediatech, Inc., Manassas, Va.) supplemented with 10% fetal bovine serum, MEM nonessential amino acid (Cellgro®) (5 ml/liter), and Penicillin-Streptomycin (2.5 ml/liter). Dengue 2 replicon expressing BHK cells and WNV replicon expressing Vero cells were cultured in DMEM as described above containing additionally Geneticin or G418 (Fisher Scientific®, Pittsburgh, Pa.) to maintain the selective pressure of the replicon expressing cells.
(§2) Naïve Vero cells were cultured in the presence of varying concentrations of the Compound 33, Compound 34, and Compound 35 to calculate CC50 values. In the same way, Compound 33, Compound 34, Compound 35, and Compound 36 were tested in BHK cells. Naïve BHK and Vero cells were prepared in 96-well plates as described above at various final concentrations. After 18 hours of incubation, 10 μl of MTT reagent (Chemicon; Temecula, Calif.) is added into each well. The cells were incubated for 2 hours before adding 100 μl of detergent and were read in a spectrophotometer as described in the manufacturer's protocol.

Data set [2] deals with Dengue 2 replicon expressing BHK cells. Kind of data set: Replicon inhibition assay (Renilla luciferase), Dengue 2 replicon expressing BHK cells. In kind it is cell-based, Dengue virus (DENV2). As to conditions: for DENV2 BHK replicon inhibition (FIG. 2): 25 μM final concentration, 24 hours, BHK cells; for EC50: Dengue virus, BHK, 24 h. Here is the method: as §1
(§3) Dengue 2 replicon expressing BHK cells and WNV replicon expressing Vero cells were plated 100 μl into a black 96 well plate (Greiner Bio-One; Monroe, N.C.) with 10^5 cells/ml concentrations. After 6 hours of incubation, 1 μl of each compound diluted in DMSO to 2.5 mM was added into each well to obtain a 25 μM as the final concentration. Cells were incubated at 37° C. in a humidified CO2 (5%) chamber for 24 hours. The media was then removed and the cells are washed with PBS before adding 20 μl of lysis buffer to each well. A Renilla luciferase assay was performed with the addition of 50 μl substrate (Promega Corporation; Madison, Wis.) with a 2 second delay and a 10 second measurement in a Centro LB 960 plate luminescence plate reader (Berthold Technologies; Oak Ridge, Tenn.). The data was analyzed and plotted with GraphPad Prism 5 (GraphPad Software, Inc.; La Jolla, Calif.).
Renilla luciferase activity was measured as described above 24 hours after the addition of the compounds.
For orientation: Replicon systems follow genome replication, usually without infectious particles.

A short description of data set [3]: Cytotoxicity assay (MTT), naïve BHK cells. It counts as cell-based. To be noted: hamster, 18 hours incubation. The procedure: as §1, §2
In data set [4] the test system is WNV replicon expressing Vero cells. Kind of data set: Replicon inhibition assay (Renilla luciferase), WNV replicon expressing Vero cells. In kind it is cell-based, West Nile virus (WNV). As to conditions: for WNV replicon inhibition (FIG. 1): 25 μM final concentration, 24 hours, Vero cells; for EC50: West Nile virus, Vero, 24 h. Here is the method:
as §1, §3
Specifically, the cells were prepared as above and the concentration of the compounds were varied (see Table 2). Renilla luciferase activity was measured as described above 24 hours after the addition of the compounds.

For `Oc1c(CN2CCOCC2)cc(Cl)c2cccnc12` [Compound 34], the half-maximal cytotoxic concentration (CC50) at 18 h worked out at 355 µM in data set [1] and 170 µM in data set [3]. Besides, in data set [2], the “DENV2 BHK replicon inhibition (FIG. 2)” value is given as “inhibitory”. Further, the concentration for a half-maximal effect (EC50) turned out to be 35 µM in data set [2] and 14.3 µM in data set [4]. Moreover, the “WNV replicon inhibition (FIG. 1)” value in data set [4] is “inhibitory”.
`CCN(CC)Cc1cc(Cl)c2cccnc2c1O` [Compound 35]: the CC50 at 18 h in data set [1] is 60.9 µM. Moreover, in data set [2], the “DENV2 BHK replicon inhibition (FIG. 2)” value is given as “inhibitory” and a half-maximal response (EC50) required 2.35 µM. In data set [3], half-maximal cytotoxicity (CC50 at 18 h) was put at 70.1 µM. Further, in data set [4], the “WNV replicon inhibition (FIG. 1)” value is reported as “inhibitory” and the midpoint of the response, the EC50, lay at 3.38 µM.
For the molecule `Oc1c(CN2CCOCC2)cc(Cl)c2c1NCCC2` [Compound 36], in data set [2], the “DENV2 BHK replicon inhibition (FIG. 2)” value was “inhibitory” and a half-maximal effect (EC50) was put at 63.1 µM. For the same molecule, the midpoint of cytotoxicity in data set [3], the CC50 at 18 h, lay at 220 µM.

What is called CC50 is the concentration at which the toxic effect on the cells reaches its halfway point. Higher therefore signals lower toxicity to the cells. The EC50 is the concentration giving half of the maximal effect. Lower therefore signals an effect from little substance.
